Results published in PubChem BioAssay (NCI).
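Growth conditions: 96-well plates. Treatment: test compound, 48 hours, 5 concentrations. Analysis: linear interpolation between bracketing concentrations; unreached endpoints set to highest concentration. GI50: concentration for 50% inhibition of growth. Definition used: TGI = concentration required for complete inhibition of growth.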

Key:
Test in all cases: NCI anticancer screen, dose series, 48 h
UACC-257 melanoma = test system: UACC-257 melanoma
U251 CNS = test system: U251 CNS
A549 NSCLC = test system: A549 NSCLC
TK-10 renal = test system: TK-10 renal
SNB-19 CNS = test system: SNB-19 CNS
SK-MEL-5 melanoma = test system: SK-MEL-5 melanoma
SR leukemia = test system: SR leukemia
SK-MEL-2 melanoma = test system: SK-MEL-2 melanoma
SF-268 CNS = test system: SF-268 CNS
NCI-H226 lung = test system: NCI-H226 lung
CAKI-1 renal = test system: CAKI-1 renal
HL-60(TB) leukemia = test system: HL-60(TB) leukemia
ACHN renal = test system: ACHN renal
PC-3 prostate = test system: PC-3 prostate
MOLT-4 leukemia = test system: MOLT-4 leukemia
786-0 renal = test system: 786-0 renal
T-47D breast = test system: T-47D breast
NCI-H23 lung = test system: NCI-H23 lung
NCI-H522 lung = test system: NCI-H522 lung
HT29 colon = test system: HT29 colon
NCI-H460 lung = test system: NCI-H460 lung
K-562 leukemia = test system: K-562 leukemia
SK-OV-3 ovarian = test system: SK-OV-3 ovarian
OVCAR-8 ovarian = test system: OVCAR-8 ovarian
HOP-92 NSCLC = test system: HOP-92 NSCLC
UACC-62 melanoma = test system: UACC-62 melanoma
MDA-MB-435 = test system: MDA-MB-435
SN12C renal = test system: SN12C renal
HCT-15 colon = test system: HCT-15 colon
DU-145 prostate = test system: DU-145 prostate
RPMI-8226 leukemia = test system: RPMI-8226 leukemia
EKVX NSCLC = test system: EKVX NSCLC
SF-539 CNS = test system: SF-539 CNS
SNB-75 CNS = test system: SNB-75 CNS
OVCAR-4 ovarian = test system: OVCAR-4 ovarian
IGROV1 ovarian = test system: IGROV1 ovarian
CCRF-CEM leukemia = test system: CCRF-CEM leukemia
A498 renal = test system: A498 renal
HCT-116 colon = test system: HCT-116 colon
BT-549 breast = test system: BT-549 breast
HCC-2998 colon = test system: HCC-2998 colon
HOP-62 NSCLC = test system: HOP-62 NSCLC
MDA-MB-231 breast = test system: MDA-MB-231 breast
KM12 colon = test system: KM12 colon
M14 melanoma = test system: M14 melanoma
SK-MEL-28 melanoma = test system: SK-MEL-28 melanoma
UO-31 renal = test system: UO-31 renal
SW-620 colon = test system: SW-620 colon
LOX IMVI melanoma = test system: LOX IMVI melanoma
OVCAR-5 ovarian = test system: OVCAR-5 ovarian
COLO 205 colon = test system: COLO 205 colon
NCI/ADR-RES ovarian = test system: NCI/ADR-RES ovarian
HS 578T breast = test system: HS 578T breast
SF-295 CNS = test system: SF-295 CNS
MCF7 breast = test system: MCF7 breast
OVCAR-3 ovarian = test system: OVCAR-3 ovarian

Structure (SMILES): COc1ccc(Cn2cc3c(c2-c2ccccc2)CCc2cnoc2-3)cc1
- GI50 (UACC-257 melanoma): 27.4 µM
- TGI (UACC-257 melanoma): > 100 µM
- GI50 (U251 CNS): 0.264 µM
- TGI (U251 CNS): > 100 µM
- GI50 (A549 NSCLC): 0.293 µM
- TGI (A549 NSCLC): > 100 µM
- GI50 (TK-10 renal): > 34.5 µM
- TGI (TK-10 renal): > 100 µM
- GI50 (SNB-19 CNS): 0.351 µM
- TGI (SNB-19 CNS): > 100 µM
- GI50 (SK-MEL-5 melanoma): 0.0479 µM
- TGI (SK-MEL-5 melanoma): 0.504 µM
- GI50 (SR leukemia): 0.0574 µM
- TGI (SR leukemia): 3.16 µM
- GI50 (SK-MEL-2 melanoma): 2.79 µM
- TGI (SK-MEL-2 melanoma): > 100 µM
- GI50 (SF-268 CNS): 0.488 µM
- TGI (SF-268 CNS): > 100 µM
- GI50 (NCI-H226 lung): 0.476 µM
- TGI (NCI-H226 lung): > 100 µM
- GI50 (CAKI-1 renal): 0.0883 µM
- TGI (CAKI-1 renal): > 100 µM
- GI50 (HL-60(TB) leukemia): 0.133 µM
- TGI (HL-60(TB) leukemia): 0.389 µM
- GI50 (ACHN renal): 0.215 µM
- TGI (ACHN renal): > 100 µM
- GI50 (PC-3 prostate): 0.096 µM
- TGI (PC-3 prostate): > 100 µM
- GI50 (MOLT-4 leukemia): 0.361 µM
- TGI (MOLT-4 leukemia): 4.38 µM
- GI50 (786-0 renal): 0.243 µM
- GI50 (T-47D breast): 1.32 µM
- TGI (T-47D breast): > 100 µM
- GI50 (NCI-H23 lung): 0.234 µM
- TGI (NCI-H23 lung): > 100 µM
- GI50 (NCI-H522 lung): 0.0327 µM
- TGI (NCI-H522 lung): 1.15 µM
- GI50 (HT29 colon): 0.0797 µM
- TGI (HT29 colon): 1.58 µM
- GI50 (NCI-H460 lung): 0.25 µM
- TGI (NCI-H460 lung): 2.12 µM
- GI50 (K-562 leukemia): 0.0404 µM
- TGI (K-562 leukemia): > 100 µM
- GI50 (SK-OV-3 ovarian): 0.226 µM
- TGI (SK-OV-3 ovarian): > 100 µM
- GI50 (OVCAR-8 ovarian): 0.416 µM
- TGI (OVCAR-8 ovarian): > 100 µM
- GI50 (HOP-92 NSCLC): 3.31 µM
- TGI (HOP-92 NSCLC): > 100 µM
- GI50 (UACC-62 melanoma): 0.0461 µM
- TGI (UACC-62 melanoma): > 100 µM
- GI50 (MDA-MB-435): 0.0311 µM
- TGI (MDA-MB-435): > 100 µM
- GI50 (SN12C renal): 0.545 µM
- TGI (SN12C renal): > 100 µM
- GI50 (HCT-15 colon): 0.127 µM
- TGI (HCT-15 colon): > 100 µM
- GI50 (DU-145 prostate): 0.359 µM
- TGI (DU-145 prostate): 2.57 µM
- GI50 (RPMI-8226 leukemia): 0.167 µM
- TGI (RPMI-8226 leukemia): 0.501 µM
- GI50 (EKVX NSCLC): 0.425 µM
- TGI (EKVX NSCLC): > 100 µM
- GI50 (SF-539 CNS): 0.149 µM
- TGI (SF-539 CNS): 0.49 µM
- GI50 (SNB-75 CNS): 0.165 µM
- TGI (SNB-75 CNS): > 100 µM
- GI50 (OVCAR-4 ovarian): 0.47 µM
- TGI (OVCAR-4 ovarian): > 100 µM
- GI50 (IGROV1 ovarian): 0.114 µM
- TGI (IGROV1 ovarian): > 100 µM
- GI50 (CCRF-CEM leukemia): 0.251 µM
- TGI (CCRF-CEM leukemia): > 100 µM
- GI50 (A498 renal): 0.209 µM
- TGI (A498 renal): > 95.5 µM
- GI50 (HCT-116 colon): 0.0904 µM
- GI50 (BT-549 breast): 0.389 µM
- TGI (BT-549 breast): > 100 µM
- GI50 (HCC-2998 colon): 0.209 µM
- TGI (HCC-2998 colon): 0.905 µM
- GI50 (HOP-62 NSCLC): 0.279 µM
- TGI (HOP-62 NSCLC): > 48.5 µM
- GI50 (MDA-MB-231 breast): 0.37 µM
- TGI (MDA-MB-231 breast): > 100 µM
- GI50 (KM12 colon): 0.103 µM
- TGI (KM12 colon): 2.97 µM
- GI50 (M14 melanoma): 0.155 µM
- TGI (M14 melanoma): > 100 µM
- GI50 (SK-MEL-28 melanoma): 33.9 µM
- TGI (SK-MEL-28 melanoma): > 100 µM
- GI50 (UO-31 renal): 0.677 µM
- TGI (UO-31 renal): > 100 µM
- GI50 (SW-620 colon): 0.113 µM
- TGI (SW-620 colon): > 100 µM
- GI50 (LOX IMVI melanoma): 0.38 µM
- TGI (LOX IMVI melanoma): > 100 µM
- GI50 (OVCAR-5 ovarian): 0.505 µM
- TGI (OVCAR-5 ovarian): > 100 µM
- GI50 (COLO 205 colon): 0.125 µM
- TGI (COLO 205 colon): 0.394 µM
- GI50 (NCI/ADR-RES ovarian): 0.0462 µM
- TGI (NCI/ADR-RES ovarian): 11.9 µM
- GI50 (HS 578T breast): 0.183 µM
- GI50 (SF-295 CNS): 0.0652 µM
- TGI (SF-295 CNS): > 100 µM
- GI50 (MCF7 breast): 0.0391 µM
- TGI (MCF7 breast): > 100 µM
- GI50 (OVCAR-3 ovarian): 0.137 µM
- TGI (OVCAR-3 ovarian): 0.509 µM
